Experimental data: patent US11033538B2, “Dosing regimens for the treatment of lysosomal storage diseases using pharmacological chaperones” (Amicus Therapeutics, Inc., priority 2007, dated 2021)
Where two headings read alike, the source gives them in different places.

Key:
[1] = test system: α-GAL; format: in vivo, human
Procedure: Four male patients received a single 150 mg Q.O.D for 12 weeks (Group B); while five male patients received 150 mg Q.O.D. for 24 weeks (Group C). Finally nine female patients were randomized to receive one of three dosages: 50, 150 or 250 mg Q.O.D for 12 weeks (Group D) (FIG. 8).
Enzymatic activity of α-Gal in leukocytes (white blood cells; WBCs) of the patients was measured as a percentage of the average α-Gal activity in white blood cells of 15 healthy volunteers. α-GAL activity was assessed in fractionated tissue obtained from biopsies, and in blood leukocytes and plasma (from blood collected at baseline and every month).

[2] = test system: GL-3; assay: Example 5, kidney GL-3 levels by electron microscopy; format: in vivo, human
Procedure: Eight patients in the study received an ascending dose of 25, 100, and then 250 mg b.i.d. over 6 weeks, followed by 50 mg/day for the remainder of the study.
Kidney GL-3 levels were assessed by an independent expert using electron microscopy.

[3] = target: T1, α-GAL (Homo sapiens, UniProt P06280); format: in vivo
T1 construct: α-GAL activity was calculated in white blood cells (WBC); endogenous in cells; host or cells: white blood cells of healthy male volunteers
T1 sequence (P06280 32-429): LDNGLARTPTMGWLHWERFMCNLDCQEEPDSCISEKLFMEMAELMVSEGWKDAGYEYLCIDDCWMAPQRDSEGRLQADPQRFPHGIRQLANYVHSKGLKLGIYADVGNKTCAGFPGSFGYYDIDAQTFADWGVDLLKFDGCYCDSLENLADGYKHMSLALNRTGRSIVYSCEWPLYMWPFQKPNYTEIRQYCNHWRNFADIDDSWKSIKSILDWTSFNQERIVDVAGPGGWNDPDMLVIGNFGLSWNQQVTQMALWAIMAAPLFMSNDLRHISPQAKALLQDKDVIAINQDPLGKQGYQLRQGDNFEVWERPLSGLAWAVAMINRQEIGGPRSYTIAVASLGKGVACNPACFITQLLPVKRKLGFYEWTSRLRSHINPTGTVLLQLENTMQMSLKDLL
Procedure: A multiple-dose Phase I trial was conducted and consisted of a total of 16 healthy volunteers divided into two groups of eight subjects. […] All subjects in one group received placebo or 50 mg twice a day for seven days, and all subjects in the other group received placebo or 150 mg twice a day for seven days. Subjects were evaluated at the beginning of the study, on Day 7 after seven days of treatment and on Day 14 after a seven day washout period.
Blood samples (10 mL each) were collected in blood collection tubes containing EDTA and WBC extracted before dosing and at the following times thereafter: 100 hours, 150 hours, and 336 hours. Samples were treated as described above, and WBC α-GAL enzymatic activity levels were determined as described in Desnick, R. J. (ed) Enzyme therapy in genetic diseases. Vol 2. Alan R Liss, New York, pp 17-32. Statistical Analysis. Safety data including laboratory evaluations, physical exams, adverse events, ECG monitoring and vital signs assessments were summarized by treatment group and point of time of collection. Descriptive statistics (arithmetic mean, standard deviation, median, minimum and maximum) were calculated for quantitative safety data as well as for the difference to baseline. Frequency counts were compiled for classification of qualitative safety data. In addition, a shift table describing out of normal range shifts was provided for clinical laboratory results. A normal-abnormal shift table was also presented for physical exam results and ECGs.

[4] = test system: GL-3; assay: Example 8, GL-3 in tissues of transgenic mice expressing R301Q; format: in vivo; conditions: 100 mg/kg ad libitum, four weeks
[5] = test system: Fabry patients; assay: Example 6, self-reported Fabry symptoms; format: in vivo, human
Description: Patients self-reported changes in symptoms at the end of 12 or 24 week treatment period to evaluate, inter alia, reduction in acroparaesthesia. This may be evidence of clearance of GL-3 in the microvasculature of peripheral nerve cells.

[6] = test system: GL-3; assay: Example 15, qualitative GL-3 in glomerular cells; format: in vivo, human; conditions: 12 months of DGJ
Procedure: GL-3 changes in podocytes, endothelial cells, and mesangial cells, and glomerular sclerosis, were assessed qualitatively by the same 3 pathologists blinded to treatment/visit.

[7] = test system: GL-3; assay: Example 15, kidney interstitial capillary GL-3 inclusions; format: in vivo, human
Description: The tertiary objectives were cardiac function, patient-reported outcomes, exploratory kidney analyses, and white blood cell α-galactosidase activity. Study completers were eligible to enroll in the open-label study—AT1001-041/NCT01458119—for up to 5 years.
Each patient underwent a baseline kidney biopsy, as well as repeat kidney biopsies at 6 and 12 months. The number of GL-3 inclusions per kidney interstitial capillary per patient at baseline, and at 6 and 12 months was quantitatively assessed in 300 capillaries by 3 independent pathologists blinded to treatment and visit. All values for each individual biopsy at a given time were averaged prior to statistical analysis.
Two other Stage 1 endpoints were assessed (modified-ITT population: randomized patients with paired baseline and month 6 biopsies; n=60): percent change in GL-3 inclusions per interstitial capillary, and percent of interstitial capillaries with zero GL-3 inclusions.

Q: With OC[C@H]1NC[C@H](O)[C@@H](O)[C@H]1O [DGJ, (2R,3S,4R,5S)-2-(hydroxymethyl) piperdine-3,4,5-triol] as the molecule, how does the “mean increase in WBC α-Gal activity” value ([1]; eleven good responders, male, pre vs post treatment) read?
A: 630%

Q: And the “mean increase in leukocyte α-Gal activity” value ([1]; four moderate responders, male)?
A: 170%

Q: What about the “number of good responders (α-Gal activity)” value ([1]; male patients, Groups A-C) of the same molecule?
A: eleven

Q: And the “number of moderate responders (α-Gal activity)” value ([1]; male patients, Groups A-C)?
A: four

Q: And the “number of non responders (α-Gal activity)” value ([1]; male patients, Groups A-C)?
A: two

Q: And the “mean increase in WBC α-Gal activity compared to baseline” value ([1]; nine female patients, Group D (50, 150 or 250 mg Q.O.D, 12 weeks))?
A: 146%

Q: And the “leukocyte or kidney α-Gal activity” value ([1]; non responders, male)?
A: None of the “non” responders exhibited any overall increase

Q: And the “mean increase in kidney α-Gal activity” value ([1]; one moderate responder, male)?
A: 100%

Q: And the “mean increase in kidney α-Gal activity” value ([1]; six of the good responders, male)?
A: 1090%

Q: And the “decrease of GL-3 levels in other kidney cell types including interstitial capillaries” value ([2]; both patients)?
A: less than 1 unit

Q: And the “kidney GL-3 (mesangial cells, glomerular endothelium, distal tubules)” value ([2]; one patient, 12 weeks of treatment)?
A: observed decrease in GL-3 in multiple cell types of the kidney of one patient

Q: What about the “kidney GL-3 (same cell types)” value ([2]; second patient, 24 weeks, not independently conclusive) of the same molecule?
A: decrease of GL-3 levels in the same kidney cell types

Q: And the “inhibition of WBC α-GAL enzymatic activity” value ([3]; 50 mg b.i.d. or 150 mg b.i.d.)?
A: did not inhibit WBC α-GAL enzymatic activity

Q: What about the “WBC α-GAL enzymatic activity” value ([3]; 50 mg b.i.d., 100 hours) of the same molecule?
A: 120 % pre-dose levels

Q: And the “WBC α-GAL enzymatic activity” value ([3]; 50 mg b.i.d., 150 hours)?
A: 130 % pre-dose levels

Q: What about the “WBC α-GAL enzymatic activity” value ([3]; 50 mg b.i.d., 336 hours) of the same molecule?
A: 145 % pre-dose levels

Q: And the “WBC α-GAL enzymatic activity” value ([3]; 150 mg b.i.d., 100 hours)?
A: 150 % pre-dose levels

Q: What about the “WBC α-GAL enzymatic activity” value ([3]; 150 mg b.i.d., 150 hours) of the same molecule?
A: 185 % pre-dose levels

Q: And the “WBC α-GAL enzymatic activity” value ([3]; 150 mg b.i.d., 336 hours)?
A: 185 % pre-dose levels

Q: And the “GLA levels in white blood cell lysates” value ([3]; 50 and 150 mg twice daily for 7 days)?
A: increased GLA levels

Q: And the “increase in levels of α-GAL in white blood cells” value ([3]; highest dose level (150 mg twice a day for seven days), healthy volunteers)?
A: ~2 fold

Q: What about the “persistence of the α-GAL increase” value ([3]; highest dose level, after the last dose) of the same molecule?
A: maintained for at least seven days after the last dose

Q: And the “GL-3 aggregates, histology of renal tube and cardiac sections” value [4]?
A: presence of GL-3 aggregates was reduced

Q: What about the “concentration of GL-3 in the sampled tissues” value [4] of the same molecule?
A: reduced

Q: And the self-reported symptoms ([5]; four female expected good responders)?
A: decreases in pain

Q: And the self-reported symptoms ([5]; seven male good responders)?
A: improved gastrointestinal function and a decrease in pain

Q: And the “samples with increases in glomerular cell GL-3” value [6]?
A: None of the samples had increases

Q: What about the “biopsies with decrease in glomerular podocyte GL-3” value ([6]; 5 of 23 biopsies) of the same molecule?
A: 22%

Q: And the “biopsies with decrease in endothelial cell GL-3” value ([6]; 6 of 23 biopsies)?
A: 26%

Q: What about the “biopsies with decrease in mesangial cell GL-3” value ([6]; 11 of 23 biopsies) of the same molecule?
A: 48%

Q: What about the “reduction in interstitial capillary GL-3 (±SEM)” value ([7]; 6 months of DGJ, mITT-suitable, p=0.008 vs placebo) of the same molecule?
A: −0.250±0.103

Q: What about the “patients achieving a response (>50% reduction in GL-3 inclusions per interstitial capillary)” value ([7]; 6 months, ITT, 150 mg DGJ HCl every other day, 13 of 32, p=0.30 vs placebo) of the same molecule?
A: 41%

Q: What about the “median change in interstitial capillary GL-3 from baseline” value ([7]; 6 months, p=0.097 vs placebo) of the same molecule?
A: −40.8%

Q: And the “mean difference for the change in % of interstitial capillaries with zero GL-3 inclusions, in favor of DGJ” value ([7]; 6 months, vs placebo, p=0.042)?
A: 7.3%

Q: What about the “interstitial capillary GL-3 reduction after additional treatment” value ([7]; additional 6 months of treatment) of the same molecule?
A: remained stable

Q: What about the “reduction in interstitial capillary GL-3 (±SEM)” value ([7]; at 12 months, patients switching from placebo to DGJ at 6 months, p=0.014) of the same molecule?
A: −0.330±0.152

Q: What about the “treatment effect in interstitial capillary GL-3” value ([7]; patients with mutant α-galactosidase not suitable for DGJ therapy) of the same molecule?
A: did not show any treatment effect in interstitial capillary GL-3
